According to the NIST ThermoML archive (doi:10.1016/j.jct.2005.04.019):

Columns and labels:
[1] = 298.15 K, 101.33 kPa, Liquid; for viscosity: Capillary tube (Ostwald / Ubbelohde) method; for mass density: Vibrating tube method; for speed of sound: Quartz crystal interferometer (Mittal Enterprises, India)
[2] = xn = mol fraction of the nth substance listed; conditions: 298.15 K, 101 kPa, Liquid; for speed of sound: Quartz crystal interferometer (Mittal Enterprises, India)

CCCCCC(C)O (stereo unspecified) [2-heptanol]
[1]
Conditions	mass density [kg/m3]	viscosity [mPa·s]
–	813.33	5.346

CCCCCC(C)O (stereo unspecified) [2-heptanol] + CC1CCCCC1
[2]
Conditions	mass density [kg/m3]	speed of sound [m/s]	viscosity [mPa·s]
x2 = 0.0998	–	1278	–
x2 = 0.103	808.34	–	3.935
x2 = 0.1479	–	1272	–
x2 = 0.1524	805.84	–	3.415
x2 = 0.206	–	1263	–
x2 = 0.2071	803.04	–	2.945
x2 = 0.2564	800.53	–	2.587
x2 = 0.3047	798.08	–	2.287
x2 = 0.3053	–	1250	–
x2 = 0.3558	795.52	–	2.013
x2 = 0.3966	–	1239	–
x2 = 0.4019	793.23	–	1.817
x2 = 0.4469	791.02	–	1.649
x2 = 0.4951	788.67	–	1.49
x2 = 0.5005	–	1229	–
x2 = 0.5969	783.72	–	1.225
x2 = 0.5973	–	1223	–
x2 = 0.7017	–	1223	–
x2 = 0.703	778.57	–	1.017
x2 = 0.7974	–	1222	–
x2 = 0.7979	773.96	–	0.879
x2 = 0.8883	769.71	–	0.773
x2 = 0.9017	–	1219	–
x2 = 0.9514	–	1215	–

CCCCC(C)O (stereo unspecified) [2-hexanol]
[1]
Conditions	mass density [kg/m3]	viscosity [mPa·s]
–	810.25	4.204

CCCCC(C)O (stereo unspecified) [2-hexanol] + CC1CCCCC1
[2]
Conditions	mass density [kg/m3]	speed of sound [m/s]	viscosity [mPa·s]
x2 = 0.1002	–	1252	–
x2 = 0.1017	804.9	–	3.089
x2 = 0.1514	802.31	–	2.701
x2 = 0.2026	799.67	–	2.344
x2 = 0.2041	–	1239	–
x2 = 0.2473	797.41	–	2.082
x2 = 0.2837	–	1231	–
x2 = 0.2995	794.85	–	1.836
x2 = 0.3508	792.24	–	1.632
x2 = 0.3521	–	1225	–
x2 = 0.3989	–	1222	–
x2 = 0.4019	789.75	–	1.468
x2 = 0.452	787.34	–	1.345
x2 = 0.4948	–	1216	–
x2 = 0.4972	785.2	–	1.227
x2 = 0.5955	780.68	–	1.052
x2 = 0.5978	–	1212	–
x2 = 0.6904	–	1209	–
x2 = 0.6956	776.28	–	0.917
x2 = 0.808	–	1208	–
x2 = 0.8089	771.63	–	0.798
x2 = 0.8967	–	1214	–
x2 = 0.8987	768.24	–	0.729
x2 = 0.9509	–	1215	–

CCCCCCC(C)O (stereo unspecified) [2-octanol]
[1]
Conditions	mass density [kg/m3]	viscosity [mPa·s]
–	816.13	6.568

CCCCCCC(C)O (stereo unspecified) [2-octanol] + CC1CCCCC1
[2]
Conditions	mass density [kg/m3]	speed of sound [m/s]	viscosity [mPa·s]
x2 = 0.1001	–	1292	–
x2 = 0.1006	811.52	–	4.941
x2 = 0.1185	810.68	–	4.692
x2 = 0.1672	808.39	–	4.097
x2 = 0.2032	–	1282	–
x2 = 0.2104	806.32	–	3.651
x2 = 0.2489	804.45	–	3.308
x2 = 0.2536	804.22	–	3.263
x2 = 0.3003	–	1269	–
x2 = 0.3171	801.09	–	2.769
x2 = 0.347	799.59	–	2.58
x2 = 0.3979	797.02	–	2.268
x2 = 0.4001	–	1258	–
x2 = 0.4503	794.35	–	2.022
x2 = 0.5043	–	1247	–
x2 = 0.5168	790.9	–	1.72
x2 = 0.5766	787.77	–	1.5
x2 = 0.5969	786.69	–	1.443
x2 = 0.5973	–	1239	–
x2 = 0.684	782.06	–	1.199
x2 = 0.6889	–	1231	–
x2 = 0.8058	775.5	–	0.943
x2 = 0.8109	–	1222	–
x2 = 0.9002	770.39	–	0.793
x2 = 0.9008	–	1219	–
x2 = 0.9466	–	1216	–

CCC(C)O (stereo unspecified) [butan-2-ol]
[1]
Conditions	mass density [kg/m3]	speed of sound [m/s]	viscosity [mPa·s]
–	802.54	1213	2.907

CCO [ethanol]
[1]
Conditions	mass density [kg/m3]	speed of sound [m/s]	viscosity [mPa·s]
–	785.32	1145	1.093

CC1CCCCC1 [methylcyclohexane]
[1]
Conditions	mass density [kg/m3]	speed of sound [m/s]	viscosity [mPa·s]
–	764.99	1209	0.683
